Columns and labels:
[1] = test system: Botrytis cinerea; experiment: Test on preventive effect against kidney bean gray mold; type: in vivo; details: 500 ppm, spray on kidney bean (Taisyou Kintoki), 3 to 4 days after inoculation
[2] = test system: sheath blight of rice; details: as disclosed in Patent Document 2 (JP-A-2005-179234); cited from earlier work
[3] = test system: Erysiphe graminis; details: 500 ppm, spray on wheat (Norin-61-go) at 1.5-leaf stage, preventive, 6 to 7 days after inoculation
Method: In each test, the controlling index was determined on the basis of the following standards:
Wheat (cultivar: Norin-61-go) was cultivated in a plastic pot having a diameter of 7.5 cm, and when it reached 1.5-leaf stage, 10 ml of a chemical solution having the carboxylic acid amide derivative of the formula (I) or a salt thereof adjusted to a prescribed concentration, was applied by a spray gun. After the chemical solution dried (the same day as the application), conidia of Erysiphe graminis were dusted and inoculated and maintained in a constant temperature chamber at 20° C. From 6 to 7 days after the inoculation, the area of sporulation was investigated, and the controlling index was determined in accordance with the above evaluation standards.

Row | Compound | controlling index (length of lesions) [1] | effect against sheath blight of rice [2] | controlling index (area of sporulation) [3] | melting point
1 | CC(C)(NC(=O)c1ccncc1F)C(=O)c1ccc(-c2ccc(OC(F)(F)F)cc2)cc1 [Comparative Compound 1, 3-fluoro-N-(2-methyl-1-oxo-1-(4′-(trifluoromethoxy)biphenyl-4-yl)propan-2-yl)isonicotinamide] | 1 (Length of lesions, number of lesions or area of sporulation is at least 70% of non-treated plot) | effective | 1 (Length of lesions, number of lesions or area of sporulation is at least 70% of non-treated plot) | 
2 | Cc1c(C(=O)C(C)(C)NC(=O)c2ncccc2C(F)(F)F)ccc2c1OC(F)(F)O2 [compound No. 2-1, N-[2-[(2,2-difluoro-4-methyl-1,3-benzodioxolan-5-yl)carbonyl]-2-propyl]-3-trifluoromethyl-2-pyridinecarboxamide] |  |  |  | 130 to 134 °C
